Reference: publication PMC10539501 (Nature Communications, 2023)
Each block holds one compound with its values, some of them ahead of it. Starred links: 1 amine or outer side, 2 acyl side, 3 side chain; linkers in the order of their positions; H or OH if unused. Non-standard residues stand in square brackets, D forms with d. Residues, ends and D or L forms follow the SMILES beside them. X1 = CC(C)C[C@H](NC(=S)[C@H](Cc1ccc(O)cc1)N[*:1])C(=O)[*:2]; X3 = CC(C)C[C@H](N[*:1])C(=S)N[C@H](CC(C)C)C(=O)[*:2]

Legend:
SIF = conditions: up to 72 hours
[1] = type: physicochemical
[2] = PAMPA passive permeability; type: in vitro ADME; conditions: for Papp: Pe Avg;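 on all read-outs here: passive permeability across an artificial membrane in 96-well pre-coated PAMPA plates, which lack transporters and efflux systems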
Protocol: Encouraged by this, the passive permeability of the analogs was evaluated using an artificial membrane (PAMPA), which measures permeability of compounds in the absence of transporters and efflux systems[32].
96-well BD Corning® pre-coated PAMPA plates were used following the supplier’s protocol, details in Supplementary Information.

[3] = type: physicochemical; remark: listed apart in the source
Description: Since reduced solvation of S also contributes to the lipophilicity of the thioamidated peptides, we sought to estimate the global desolvation of the macrocyclic peptides, which is affected by solvation of both N(H) and C(S). […] Thus, we evaluated the desolvation potential of the cyclic peptides by determining the distribution coefficients in heptane-ethylene glycol (logDh/e), a solvent system that provides an experimental estimate of desolvation or hydrogen bond potential[38].

in vitro [4] = type: in vitro ADME, human
Protocol: (§1) The Caco-2 cell (HTB-37^TM from ATCC, procured from NCCS, Pune) monolayer was washed and pre-incubated at 37 °C and 5% CO2 for 30 min with HBSS-HEPES buffer containing 1% DMSO prior to experimentation. The assay was performed 21 days post-seeding of cells. TEER values were measured before starting and after the completion of the assay. Acceptor and donor well concentrations of the peptides and controls were assessed through LC-MS/MS.

Caco-2 cells = assay: in vitro; type: in vitro ADME, human; conditions: Caco-2
Protocol: as §1

[5] = rat, in vivo, po, 10 mg/kg
Protocol: (§2) All animals were housed individually in the animal facility at Anthem Biosciences Pvt. Ltd and were acclimatized for 3 days. All animals were fasted overnight before dosing, whereas access to water was provided ad libitum. Peptides were administered orally and via s.c. route and blood samples were collected at different time points through a jugular vein catheter.

in vivo = conditions: male, Wistar, rat
Protocol: as §2

physchem = conditions: pH 7.4
in vitro [6] = conditions: both, human, plasma
Protocol: (§3) Blood was freshly drawn from three healthy adults, two male and one person of 26–28 year old. […] The plasma was separated by centrifugation. […] For checking metabolic stability, the required volume of plasma was pre-incubated at 37 °C prior to the experiment for 2 min, followed by spiking with the peptides. At different time points, plasma was aliquoted. The supernatant was separated and used for RP-HPLC quantification. Rapid Equilibrium Dialysis (RED) assay was performed to assess the plasma protein binding of the peptides following the supplier’s protocol.

pepsin [7] = biological target: T1, pepsin (Sus scrofa, UniProt P00791); assay: in vitro; conditions: simulated gastric fluid, pH 1.2
T1 sequence (P00791 60-385): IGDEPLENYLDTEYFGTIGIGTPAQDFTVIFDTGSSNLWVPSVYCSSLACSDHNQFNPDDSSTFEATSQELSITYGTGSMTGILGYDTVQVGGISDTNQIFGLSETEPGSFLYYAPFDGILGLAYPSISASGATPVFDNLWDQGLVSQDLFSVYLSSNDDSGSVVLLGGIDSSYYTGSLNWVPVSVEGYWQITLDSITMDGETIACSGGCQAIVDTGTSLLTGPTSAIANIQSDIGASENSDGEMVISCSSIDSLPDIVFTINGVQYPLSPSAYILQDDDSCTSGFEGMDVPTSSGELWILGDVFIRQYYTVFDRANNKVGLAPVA
Protocol: (§4) A stability assessment of the peptides was done in simulated gastric (SGF) and intestinal (SIF) fluids and human liver microsomes. The degradation kinetics of the aliquoted samples at desired time points were analyzed through RP-HPLC.

in vitro [8] = conditions: pig, simulated intestinal fluid
in vitro [9] = conditions: human, microsomes
Protocol: as §4

in vitro [10] = conditions: both, human, plasma; remark: listed apart in the source
[11] = Retention in hydrophobic C18 column by HPLC; conditions: Supplementary Fig 3d, logD7.4 vs tR
[12] = HDX of amide protons by NMR in DMSO-d6:D2O (8:2); conditions: HDX by NMR, 20% D2O in DMSO-d6
Protocol: (§5) As hydrogen bonding and solvation of NH groups play an important role in the permeability of macrocycles, we determined the solvent accessibility of individual amide protons in 10 and 10a–10f by hydrogen-deuterium exchange (HDX) through NMR spectroscopy (Figs. 2a–c).
(§6) Spectra were recorded on a Bruker AV 500 MHz spectrometer at 25 °C.

[13] = HDX of amide protons by NMR in CDCl3:CD3OD (8:2); conditions: for Half-life of D-Leu1 amide proton (HDX) / Half-life of Leu2 amide proton (HDX) / Half-life of Leu3 amide proton (HDX) / Half-life of Leu6 amide proton (HDX) / Half-life of Tyr5 amide proton (HDX): 20% CD3OD in CDCl3
Protocol: as §5, §6

pepsin [14] = biological target: T1, pepsin; conditions: pH 1.2
Protocol: as §4

[15] = Octanol-water distribution coefficient (logD7.4); conditions: octanol-water, pH 7.4; value plotted against PAMPA (Supplementary Fig 12)
[16] = Caco-2, Papp A-B + Elacridar avg
[17] = Caco-2, Papp B-A + Elacridar avg
[18] = 20% CD3OD in CDCl3, % remaining after 24 hours
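Wherever Papp A-B avg (second block) is given: Caco-2 monolayers used 21 days after seeding in HBSS-HEPES buffer with 1% DMSO, donor and acceptor levels quantified by LC-MS/MS, TEER checked before and after.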
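Wherever Papp A-B set 1 (second block) is given: Caco-2 monolayers used 21 days after seeding in HBSS-HEPES buffer with 1% DMSO, donor and acceptor levels quantified by LC-MS/MS, TEER checked before and after.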
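Wherever Papp A-B set 2 (second block) is given: Caco-2 monolayers used 21 days after seeding in HBSS-HEPES buffer with 1% DMSO, donor and acceptor levels quantified by LC-MS/MS, TEER checked before and after.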
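Wherever Papp B-A avg (second block) is given: Caco-2 monolayers used 21 days after seeding in HBSS-HEPES buffer with 1% DMSO, donor and acceptor levels quantified by LC-MS/MS, TEER checked before and after.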

Protocol for human liver microsomes: as §4
Protocol for plasma proteins: as §3

Compound: cyclo(D-Trp^1-Lys-Thr-Phe-Pro-Phe^6)
not cleaved (SIF): prevented the degradation of the macrocycle over 72 h

% solubility [1]: 23%
Pe Avg [2]: 7.3 ×10⁻⁶ cm/s
Pe set1 [2]: 7.27 ×10⁻⁶ cm/s
Pe set2 [2]: 9.86 ×10⁻⁶ cm/s
Pe set3 [2]: 4.7 ×10⁻⁶ cm/s
Papp [2]: 7.3 ×10⁻⁶ cm/s
logD heptane ethylene glycol [3]: 1.08
Papp A→B (in vitro [4]; [16]): 6.8 ×10⁻⁶ cm/s
Papp A→B (in vitro [4]; Caco-2, Papp A-B avg): 3.01 ×10⁻⁶ cm/s
Papp B→A (in vitro [4]; [17]): 8.9 ×10⁻⁶ cm/s
Papp B→A (in vitro [4]; Caco-2, Papp B-A avg): 41.8 ×10⁻⁶ cm/s
Papp A-B avg (second block) (Caco-2 cells): 3.01 ×10⁻⁶ cm/s
Papp A-B set 1 (second block) (Caco-2 cells): 4.57 ×10⁻⁶ cm/s
Papp A-B set 2 (second block) (Caco-2 cells): 1.45 ×10⁻⁶ cm/s
Papp B-A avg (second block) (Caco-2 cells): 41.8 ×10⁻⁶ cm/s
Papp B-A set 1 (second block) (Caco-2 cells): 39.7 ×10⁻⁶ cm/s
Papp B-A set 2 (second block) (Caco-2 cells): 43.9 ×10⁻⁶ cm/s
Protein binding set1 (plasma proteins): 100%
Protein binding set2 (plasma proteins): 100%
Protein binding set3 (plasma proteins): 95%
Half lives (SIF) Avg (pancreatin): 128 min
Half lives (SIF) set1 (pancreatin): 184 min
Half lives (SIF) set2 (pancreatin): 94 min
Half lives (SIF) set3 (pancreatin): 108 min
Half lives (human liver microsomes): 42.3
AUClast p.o [5]: 120.8 ng·h/mL
time over which the peptide is detectable in plasma [5]: ≥ 8 h
AUC(0-t) (in vivo; iv): 390 ng·h/mL
Cmax (in vivo; iv): 580 ng/mL
MRT (in vivo; iv): 1.1 h
Vd (in vivo; iv): 3.2 L/kg
clearance (in vivo; iv): 42.2 mL/min/kg
bioavailability (in vivo; po): 3.1%
AUC(0-t) (in vivo; po, 10 mg/kg): 121 ng·h/mL
Cmax (in vivo; po, 10 mg/kg): 61.7 ng/mL
MRT (in vivo; po, 10 mg/kg): 2.1 h
level at 3 h (in vivo; po, 10 mg/kg): 13.1 ng/mL
logD (physchem): 1.53
fraction unbound (in vitro [6]): 0.02
half-life (pepsin [7]): 1.3 h
remaining at 5 min (pepsin [7]): 78%
remaining at 10 min (pepsin [7]): 73%
remaining at 20 min (pepsin [7]): 67%
remaining at 0.5 h (pepsin [7]): 61%
remaining at 1 h (pepsin [7]): 54%
remaining at 2 h (pepsin [7]): 44%
remaining at 4 h (pepsin [7]): 34%
remaining at 8 h (pepsin [7]): 24%
remaining at 12 h (pepsin [7]): 15%
remaining at 24 h (pepsin [7]): 9%
half-life (in vitro [8]): 2.1 h
remaining at 10 min (in vitro [8]): 80.9%
remaining at 0.5 h (in vitro [8]): 67.2%
remaining at 1 h (in vitro [8]): 56.5%
remaining at 2 h (in vitro [8]): 48.1%
remaining at 4 h (in vitro [8]): 42.9%
remaining at 8 h (in vitro [8]): 31.7%
remaining at 12 h (in vitro [8]): 24.6%
remaining at 24 h (in vitro [8]): 17.2%
microsomal CLint (in vitro [9]): 33 µL/min/mg
remaining at 5 min (in vitro [9]): 78%
remaining at 10 min (in vitro [9]): 71%
remaining at 20 min (in vitro [9]): 62%
remaining at 0.5 h (in vitro [9]): 56%
remaining at 0.75 h (in vitro [9]): 48%
remaining at 1 h (in vitro [9]): 38%
half-life (in vitro [10]): 18 h
remaining at 1 h (in vitro [10]): 92%
remaining at 3 h (in vitro [10]): 87%
remaining at 5 h (in vitro [10]): 84%
remaining at 7 h (in vitro [10]): 79%
remaining at 9 h (in vitro [10]): 63%
remaining at 12 h (in vitro [10]): 54%
remaining at 24 h (in vitro [10]): 38%
remaining at 36 h (in vitro [10]): 22%
remaining at 48 h (in vitro [10]): 25%
remaining at 60 h (in vitro [10]): 26%
remaining at 72 h (in vitro [10]): 21%
tR [11]: 14 min
Half-life of D-Leu1 amide proton (HDX) [12]: 0.017 h
Half-life of Leu2 amide proton (HDX) [12]: 11.7 h
Half-life of Leu3 amide proton (HDX) [12]: 13.2 h
Half-life of Leu6 amide proton (HDX) [12]: 12 h
Half-life of Tyr5 amide proton (HDX) [12]: 18 h
Half-life of D-Leu1 amide proton (HDX) [13]: 0.167 h
Half-life of Leu2 amide proton (HDX) [13]: 8.33 h
Half-life of Leu3 amide proton (HDX) [13]: 3.27 h
Half-life of Leu6 amide proton (HDX) [13]: > 24 h
Half-life of Tyr5 amide proton (HDX) [13]: > 24 h
% intact NH, Leu6 [13, 18]: 52%
% intact NH, Tyr5 [13, 18]: 67%
Compound: CC(C)C[C@@H]1NC(=O)[C@@H](CC(C)C)NC(=S)[C@H](CC(C)C)NC(=O)[C@H](Cc2ccc(O)cc2)NC(=O)[C@H]2CCCN2C(=O)[C@H](CC(C)C)NC1=O [10f] (cyclo(LL[dP]Y[X3]))

% solubility [1]: 14%
Pe Avg [2]: 7.4 ×10⁻⁶ cm/s
Pe set1 [2]: 7.43 ×10⁻⁶ cm/s
Pe set2 [2]: 6.36 ×10⁻⁶ cm/s
Pe set3 [2]: 8.29 ×10⁻⁶ cm/s
Papp [2]: 7.4 ×10⁻⁶ cm/s
logD heptane ethylene glycol [3]: 0.94
Papp A→B (in vitro [4]; [16]): 6.1 ×10⁻⁶ cm/s
Papp A→B (in vitro [4]; Caco-2, Papp A-B avg): 2.01 ×10⁻⁶ cm/s
Papp B→A (in vitro [4]; [17]): 9.5 ×10⁻⁶ cm/s
Papp B→A (in vitro [4]; Caco-2, Papp B-A avg): 37.6 ×10⁻⁶ cm/s
Papp A-B avg (second block) (Caco-2 cells): 2.01 ×10⁻⁶ cm/s
Papp A-B set 1 (second block) (Caco-2 cells): 2.06 ×10⁻⁶ cm/s
Papp A-B set 2 (second block) (Caco-2 cells): 1.96 ×10⁻⁶ cm/s
Papp B-A avg (second block) (Caco-2 cells): 37.6 ×10⁻⁶ cm/s
Papp B-A set 1 (second block) (Caco-2 cells): 38.6 ×10⁻⁶ cm/s
Papp B-A set 2 (second block) (Caco-2 cells): 36.7 ×10⁻⁶ cm/s
Protein binding set1 (plasma proteins): 100%
Protein binding set2 (plasma proteins): 95%
Protein binding set3 (plasma proteins): 100%
Half lives (SGF) set1 (pepsin [14]): 259 min
Half lives (human liver microsomes): 24.8
AUClast p.o [5]: 359.5 ng·h/mL
time over which the peptide is detectable in plasma [5]: ≥ 8 h
AUC(0-t) (in vivo; iv): 2280 ng·h/mL
Cmax (in vivo; iv): 2660 ng/mL
MRT (in vivo; iv): 1.5 h
Vd (in vivo; iv): 0.7 L/kg
clearance (in vivo; iv): 7.5 mL/min/kg
bioavailability (in vivo; po): 1.6%
AUC(0-t) (in vivo; po, 10 mg/kg): 360 ng·h/mL
Cmax (in vivo; po, 10 mg/kg): 47.2 ng/mL
MRT (in vivo; po, 10 mg/kg): 5.9 h
level at 3 h (in vivo; po, 10 mg/kg): 32.6 ng/mL
logD (physchem): 1.45
fraction unbound (in vitro [6]): 0.01
half-life (pepsin [7]): 3.83 h
remaining at 5 min (pepsin [7]): 82%
remaining at 10 min (pepsin [7]): 78%
remaining at 20 min (pepsin [7]): 73%
remaining at 0.5 h (pepsin [7]): 66%
remaining at 1 h (pepsin [7]): 61%
remaining at 2 h (pepsin [7]): 58%
remaining at 4 h (pepsin [7]): 49%
remaining at 8 h (pepsin [7]): 41%
remaining at 12 h (pepsin [7]): 35%
remaining at 24 h (pepsin [7]): 24%
half-life (in vitro [8]): 4.02 h
remaining at 10 min (in vitro [8]): 76.6%
remaining at 0.5 h (in vitro [8]): 68.3%
remaining at 1 h (in vitro [8]): 62.8%
remaining at 2 h (in vitro [8]): 58.3%
remaining at 4 h (in vitro [8]): 49.7%
remaining at 8 h (in vitro [8]): 40.9%
remaining at 12 h (in vitro [8]): 27.5%
remaining at 24 h (in vitro [8]): 19.9%
microsomal CLint (in vitro [9]): 56.5 µL/min/mg
remaining at 5 min (in vitro [9]): 97%
remaining at 10 min (in vitro [9]): 70%
remaining at 20 min (in vitro [9]): 55%
remaining at 0.5 h (in vitro [9]): 47%
remaining at 0.75 h (in vitro [9]): 37%
remaining at 1 h (in vitro [9]): 27%
half-life (in vitro [10]): 26 h
remaining at 1 h (in vitro [10]): 90%
remaining at 3 h (in vitro [10]): 82%
remaining at 5 h (in vitro [10]): 84%
remaining at 7 h (in vitro [10]): 76%
remaining at 9 h (in vitro [10]): 67%
remaining at 12 h (in vitro [10]): 61%
remaining at 24 h (in vitro [10]): 50%
remaining at 36 h (in vitro [10]): 43%
remaining at 48 h (in vitro [10]): 32%
remaining at 60 h (in vitro [10]): 25%
remaining at 72 h (in vitro [10]): 12%
tR [11]: 13.5 min
logD7.4 [15]: 1.65
Half-life of D-Leu1 amide proton (HDX) [12]: 0.767 h
Half-life of Leu2 amide proton (HDX) [12]: 0.6 h
Half-life of Leu3 amide proton (HDX) [12]: 3.18 h
Half-life of Leu6 amide proton (HDX) [12]: 10.8 h
Half-life of Tyr5 amide proton (HDX) [12]: 0.583 h
Half-life of D-Leu1 amide proton (HDX) [13]: 0.167 h
Half-life of Leu2 amide proton (HDX) [13]: 0.033 h
Half-life of Leu3 amide proton (HDX) [13]: > 24 h
Half-life of Leu6 amide proton (HDX) [13]: > 24 h
Half-life of Tyr5 amide proton (HDX) [13]: 3.13 h
% intact NH, Leu3 [13, 18]: 66%
% intact NH, Leu6 [13, 18]: 70%
Compound: CC(C)C[C@@H]1NC(=O)[C@@H](CC(C)C)NC(=O)[C@H](CC(C)C)NC(=S)[C@H](Cc2ccc(O)cc2)NC(=O)[C@H]2CCCN2C(=O)[C@H](CC(C)C)NC1=O [10e] (cyclo(LL[dP][X1][dL]))
